Assay results reported in patent US20260327222A1, “SULFONAMIDE COMPOUND AND HARMFUL-ARTHROPOD-CONTROLLING COMPOSITION CONTAINING SAME” (SUMITOMO CHEMICAL COMPANY, LIMITED, priority 2022, published 2026).

How the values were obtained:
Assay type in all cases: in vivo
[1] = test system: common house mosquito (Culex pipiens pallens); assay: Test Method 12: common house mosquito larvae in diluted solution; settings: 3.5 ppm; final instar larvae; 1 day; 25 °C
Description: Each test compound is formulated according to the method mentioned in Formulation Example 1 to obtain each formulation, and water is added thereto to prepare a diluted solution containing a prescribed concentration of each test compound. […]
The test was carried out by making the prescribed concentration 3.5 ppm and using the following present compounds as a test compound according to the test method 12.

[2] = test system: common cutworm (Spodoptera litura); assay: Test Method 9: common cutworm on sprayed cabbage, 3rd instar larvae (Formulation Example 5); settings: 200 ppm, spray 20 mL/seedling, 6 days, 25 °C
Description: (§1) Each test compound is formulated according to the method mentioned in Formulation Example 5 to obtain each formulation, and water containing 0.03% by volume of Shindaine (registered trademark) is added thereto to prepare a diluted solution containing a prescribed concentration of each test compound.
(§2) Each of the diluted solutions is sprayed over cabbage (Brassicae oleracea) seedlings (on the developmental stage of the third to fourth true leaf) planted in a container in a ratio of 20 mL/seedling. Thereafter, ten 3rd instar larvae of common cutworm (Spodoptera litura) are released into the container. After 6 days, the number of the surviving insects is counted and the mortality of insects is calculated by the following equation.
(§3) Mortality (%)=(1−Number of surviving insects/10)×100
The test was carried out by making the prescribed concentration 200 ppm and using the following present compounds as a test compound according to the test method 9.
The test is carried out by making the prescribed concentration 50 ppm and using the following present compounds as a test compound according to the test method 9. As a result of the test, it is possible to confirm an insecticidal effect on common cutworm (Spodoptera litura).

[3] = test system: cotton aphids (Aphis gossypii); assay: Test Method 1: cotton aphid foliar spray, cucumber seedlings (Formulation Example 1); settings: 500 ppm; spray 10 mL/seedling; 5 days after spraying; 25 °C
Description: (§4) Each test compound is formulated according to the method mentioned in Formulation Example 1 to obtain each formulation, and water containing 0.03% by volume of Shindaine (registered trademark) is added thereto to prepare a diluted solution containing a prescribed concentration of each test compound.
(§5) Approximately 30 cotton aphids (Aphis gossypii) (all stages of life) are released onto cucumber (Cucumis sativus) seedlings (on the developmental stage of the second true leaf) planted in a container. After 1 day, each of the diluted solutions is sprayed over the seedlings in a ratio of 10 mL/seedling. After additional 5 days, the number of the surviving insects is examined and the control value is calculated by the following equation.
(§6) Control value (%)={1−(Cb×Tai)/(Cai×Tb)}×100 • where symbols in the equation represent the following meanings: • Cb: Number of test insects in non-treated area; • Cai: Number of surviving insects at the time of the investigation in non-treated area; • Tb: Number of test insects in treated area; and • Tai: Number of surviving insects at the time of the investigation in treated area.
(§7) Here, the “non-treated area” represents an area where the same treatment procedure as that of the treated area is carried out except for not using each test compound.
The test was carried out by making the prescribed concentration 500 ppm and using the following present compounds as a test compound according to the test method 1.

[4] = test system: houseflies (Musca domestica); assay: Test Method 8: housefly, coated container contact; settings: coating amount 40 mg/m^2; adult males; 1 day; 25 °C
Description: An acetone solution prepared by making the concentration of the test compound 800 ppm is poured into a 20 mL container, and the inner face of the container is uniformly coated with the test compound so as to make the coating amount of 40 mg/m^2, followed by drying.
Five adult male houseflies (Musca domestica) are released into the container, and the container is then covered with a lid. After the prescribed time is elapsed, the state of the houseflies are examined. The mortality of insects is calculated by the following equation.
(§8) Mortality (%)=(Number of dead insects/Number of tested insects)×100
The test was carried out by making the prescribed elapsed time 1 day and using the following present compounds as a test compound according to the test method 8.

[5] = test system: cotton aphids (Aphis gossypii); assay: Test Method 11: cotton aphid foliar spray, cucumber seedlings (Formulation Example 5); settings: spray 10 mL/seedling, 5 days after spraying, 25 °C
Description: as §1
as §5, with “thirty” for “30”
as §6, §7
The test was carried out by making the prescribed concentration 200 ppm and using the following present compounds as a test compound according to the test method 11.
The test was carried out by making the prescribed concentration 50 ppm and using the following present compounds as a test compound according to the test method 11.

[6] = test system: western corn rootworm (Diabrotica virgifera virgifera); assay: Test Method 5: western corn rootworm on immersed corn seedlings; settings: 200 ppm; seedlings immersed 30 seconds; 2nd instar larvae; 5 days; 25 °C
Description: Each test compound is dissolved in 50 μL of a mixed solution of polyoxyethylene sorbitan monococoate and acetone (at a volume ratio of 5:95) per 1 mg of the test compound. Water containing 0.03% by volume of Shindaine (registered trademark) is added thereto to prepare a diluted solution containing a prescribed concentration of each test compound.
Young seedlings of corns (Zea mays) are immersed in each of the diluted solutions for 30 seconds. Thereafter, two seedlings are placed in a petri dish (diameter: 90 mm), and ten 2nd instar larvae of western corn rootworm (Diabrotica virgifera virgifera) are released into the dish. After 5 days, the number of the dead insects is counted, and the mortality of insects is calculated by the following equation.
Mortality (%)=(1−Number of dead insects/10)×100
The test was carried out by making the prescribed concentration 200 ppm and using the following present compounds as a test compound according to the test method 5.

[7] = test system: diamondback moth (Plutella xylostella); assay: Test Method 10: diamondback moth on sprayed cabbage, 3rd instar larvae (Formulation Example 5); settings: spray 20 mL/seedling, 5 days, 25 °C
Description: as §1
as §2, with “diamondback moth (Plutella xylostella)” for “common cutworm (Spodoptera litura)”, “5” for “6”, “counted,” for “counted”
as §3
The test was carried out by making the prescribed concentration 200 ppm and using the following present compounds as a test compound according to the test method 10.
The test was carried out by making the prescribed concentration 50 ppm and using the following present compounds as a test compound according to the test method 10.

[8] = test system: German cockroach (Blattella germanica); assay: Test Method 6: German cockroach, coated container contact; settings: coating amount 40 mg/m^2; male adults; 3 days; 25 °C
Description: An acetone solution prepared by making the concentration of the test compound 800 ppm is poured into a 50 mL container, and the inner face of the container is uniformly coated with the test compound so as to make the coating amount of 40 mg/m^2, followed by drying.
Five German cockroach (Blattella germanica) male adults are released into the container, and the container is then covered with a lid. After the prescribed time is elapsed, the state of the German cockroach are examined. The mortality of insects is calculated by the following equation.
as §8
The test was carried out by making the prescribed elapsed time 3 days and using the following present compounds as a test compound according to the test method 6.

[9] = test system: common cutworm (Spodoptera litura); assay: Test Method 3: common cutworm on sprayed cabbage, 2nd instar larvae; settings: 500 ppm, spray 20 mL/seedling, 5 days, 25 °C
Description: as §4
(§9) Each of the diluted solutions is sprayed over cabbage (Brassicae oleracea) seedlings (on the developmental stage of the second to third true leaf) planted in a container in a ratio of 20 mL/seedling. Thereafter, the stem and leaf of the seedlings are cut out, and placed in a container lined with a filter paper. Five 2nd instar larvae of common cutworm (Spodoptera litura) are released into the container. After 5 days, the number of the surviving insects is counted, and the mortality of insects is calculated by the following equation.
(§10) Mortality (%)=(1−Number of surviving insects/5)×100
The test was carried out by making the prescribed concentration 500 ppm and using the following present compounds as a test compound according to the test method 3.

[10] = test system: diamondback moth (Plutella xylostella); assay: Test Example 4 (test method 4): diamondback moth on sprayed cabbage, 2nd instar larvae; settings: 500 ppm, spray 20 mL/seedling, 5 days, 25 °C
Description: as §4
as §9, with “diamondback moth (Plutella xylostella)” for “common cutworm (Spodoptera litura)”
as §10
The test was carried out by making the prescribed concentration 500 ppm and using the following present compounds as a test compound according to the test method 4.

Question: Which mortality [1] does the source give for CNS(=O)(=O)c1c(-c2cnc(OCC(F)(F)C(F)(F)F)cn2)nc2ccc(Br)cn12 [compound 1] here?
Answer: The mortality was ≥ 90%.

Question: What about the mortality [2] of the same molecule?
Answer: The mortality was ≥ 80%.

Question: What about the control value [3] of the same molecule?
Answer: The control value was ≥ 90%.

Question: And the mortality of insects [4]?
Answer: Its mortality of insects is ≥ 80%.

Question: What about the control value ([5]; 50 ppm) of the same molecule?
Answer: Its control value is ≥ 90%.

Question: What about the control value ([5]; 200 ppm) of the same molecule?
Answer: Its control value is ≥ 90%.

Question: What about the mortality [6] of the same molecule?
Answer: The mortality was ≥ 80%.

Question: And the mortality ([7]; 50 ppm)?
Answer: Its mortality is ≥ 80%.

Question: And the mortality ([7]; 200 ppm)?
Answer: Its mortality is ≥ 80%.

Question: And the mortality of insects [8]?
Answer: The mortality of insects was ≥ 80%.

Question: What about the mortality [9] of the same molecule?
Answer: The mortality was ≥ 80%.

Question: And the mortality [10]?
Answer: Its mortality is ≥ 80%.

Question: How did the mortality [2] turn out when CN(C)S(=O)(=O)c1c(-c2ccc(OCC(F)(F)C(F)F)nn2)nc2ccc(I)cn12 [compound 4] was run?
Answer: Its mortality is ≥ 80%.

Question: What about the control value [3] of the same molecule?
Answer: The control value was ≥ 90%.

Question: And the mortality ([7]; 50 ppm)?
Answer: The mortality was ≥ 80%.

Question: What about the mortality ([7]; 200 ppm) of the same molecule?
Answer: The mortality was ≥ 80%.

Question: And the mortality [9]?
Answer: The mortality was ≥ 80%.

Question: And the mortality [10]?
Answer: The mortality was ≥ 80%.

Question: For CCNS(=O)(=O)c1c(-c2cnc(OCC(F)(F)C(F)(F)F)cn2)nc2ccc(Br)cn12 [compound 2], which mortality [1] is on record?
Answer: The mortality was ≥ 90%.

Question: What about the mortality [2] of the same molecule?
Answer: Its mortality is ≥ 80%.

Question: And the control value [3]?
Answer: Its control value is ≥ 90%.

Question: What about the mortality of insects [4] of the same molecule?
Answer: Its mortality of insects is ≥ 80%.

Question: What about the control value ([5]; 50 ppm) of the same molecule?
Answer: The control value was ≥ 90%.

Question: And the control value ([5]; 200 ppm)?
Answer: Its control value is ≥ 90%.

Question: What about the mortality [6] of the same molecule?
Answer: The mortality was ≥ 80%.

Question: And the mortality ([7]; 50 ppm)?
Answer: The mortality was ≥ 80%.

Question: What about the mortality ([7]; 200 ppm) of the same molecule?
Answer: Its mortality is ≥ 80%.

Question: And the mortality of insects [8]?
Answer: The mortality of insects was ≥ 80%.

Question: What about the mortality [9] of the same molecule?
Answer: Its mortality is ≥ 80%.

Question: And the mortality [10]?
Answer: The mortality was ≥ 80%.
